# Laboratory results taken from patent publication US20080026996A1, “Selective Vpac2 Receptor Reptide Agonists” (ELI LILLY AND COMPANY, priority 2004, published 2008).
# Where “and” joins values, the source holds several entries; their conditions need not be identical. Equal values may be shown once. Read-outs that look alike come from different tables or passages of the source. Where no end group is shown, it is not given here. [ ]: non-standard residue; d: D form. The star is where a group is joined. Hexanoyl = CCCCCC(=O)*
# Tests used:
# human VPAC2 [1] = biological target: T1, human VPAC2 (Homo sapiens, UniProt P41587); experiment: Filter binding assay, membranes of stable VPAC2 cell line, 125I-labeled VIP tracer (Table 2); conditions: read-out: Human VPAC2 Receptor Binding
# T1 construct: expressed in transfected cells
# T1 sequence (P41587 24-438): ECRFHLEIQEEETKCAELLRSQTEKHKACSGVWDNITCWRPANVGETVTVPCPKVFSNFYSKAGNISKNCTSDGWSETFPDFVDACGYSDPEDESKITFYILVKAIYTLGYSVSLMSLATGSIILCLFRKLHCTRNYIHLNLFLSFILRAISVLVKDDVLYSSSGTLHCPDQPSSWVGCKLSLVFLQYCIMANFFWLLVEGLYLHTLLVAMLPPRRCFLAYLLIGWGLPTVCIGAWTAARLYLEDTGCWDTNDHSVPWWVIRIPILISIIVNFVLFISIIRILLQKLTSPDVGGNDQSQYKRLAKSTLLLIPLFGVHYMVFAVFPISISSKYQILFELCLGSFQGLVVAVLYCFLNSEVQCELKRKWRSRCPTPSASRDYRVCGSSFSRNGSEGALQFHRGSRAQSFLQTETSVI
# Method in brief: (§1)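 Scintillation counting of filter-retained radioligand gave the read-out. Compounds competed with the labelled tracer (about 40000 cpm) for 2.5 μg membranes during 1 hour of shaking in HEPES pH 7.4 buffer containing 0.5% BSA.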
# human VPAC1 [2] = biological target: T2, human VPAC1 (Homo sapiens, UniProt P32241); experiment: Filter binding assay, membranes of cells transiently transfected with human VPAC1, 125I-labeled VIP tracer (Table 2); parameters: expressed in transfected cells; conditions: read-out: Human VPAC1 Receptor Binding
# T2 sequence (P32241 31-457): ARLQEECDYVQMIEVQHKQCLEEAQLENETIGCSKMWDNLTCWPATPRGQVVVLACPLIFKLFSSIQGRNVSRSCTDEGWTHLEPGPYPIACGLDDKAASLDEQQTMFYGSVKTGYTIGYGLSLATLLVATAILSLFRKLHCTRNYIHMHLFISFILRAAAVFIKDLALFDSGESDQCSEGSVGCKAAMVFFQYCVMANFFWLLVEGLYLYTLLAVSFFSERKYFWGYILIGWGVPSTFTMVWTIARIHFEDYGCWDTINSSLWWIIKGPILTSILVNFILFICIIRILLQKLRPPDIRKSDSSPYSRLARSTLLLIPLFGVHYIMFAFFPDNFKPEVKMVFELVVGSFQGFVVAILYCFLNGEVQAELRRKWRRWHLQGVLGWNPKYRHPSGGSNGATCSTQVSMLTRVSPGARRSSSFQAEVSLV
# Method in brief: as §1
# human VPAC2 [3] = biological target: T1, human VPAC2; experiment: DiscoveRx cAMP in vitro potency, CHO-S cell line stably expressing human VPAC2 receptor; assay type: cell-based; conditions: cAMP generation; mean of two independent runs
# Description: (§2) Also, the cells are washed twice. The cells are incubated in assay buffer plus IBMX for 15 minutes at room temperature. […] The stimuli are present for 30 minutes. Then, the assay buffer is gently removed. […] At day 3, the assay described above for the VPAC2 receptor cell line is performed.
# DPP-IV = biological target: T3, DPP-IV (Sus scrofa, UniProt P22411); experiment: DPP-IV HPLC assay: in vitro incubation with purified dipeptidyl-peptidase IV; assay type: in vitro ADME, Porcine
# T3 construct: purchased Sigma
# T3 sequence (P22411 whole entry): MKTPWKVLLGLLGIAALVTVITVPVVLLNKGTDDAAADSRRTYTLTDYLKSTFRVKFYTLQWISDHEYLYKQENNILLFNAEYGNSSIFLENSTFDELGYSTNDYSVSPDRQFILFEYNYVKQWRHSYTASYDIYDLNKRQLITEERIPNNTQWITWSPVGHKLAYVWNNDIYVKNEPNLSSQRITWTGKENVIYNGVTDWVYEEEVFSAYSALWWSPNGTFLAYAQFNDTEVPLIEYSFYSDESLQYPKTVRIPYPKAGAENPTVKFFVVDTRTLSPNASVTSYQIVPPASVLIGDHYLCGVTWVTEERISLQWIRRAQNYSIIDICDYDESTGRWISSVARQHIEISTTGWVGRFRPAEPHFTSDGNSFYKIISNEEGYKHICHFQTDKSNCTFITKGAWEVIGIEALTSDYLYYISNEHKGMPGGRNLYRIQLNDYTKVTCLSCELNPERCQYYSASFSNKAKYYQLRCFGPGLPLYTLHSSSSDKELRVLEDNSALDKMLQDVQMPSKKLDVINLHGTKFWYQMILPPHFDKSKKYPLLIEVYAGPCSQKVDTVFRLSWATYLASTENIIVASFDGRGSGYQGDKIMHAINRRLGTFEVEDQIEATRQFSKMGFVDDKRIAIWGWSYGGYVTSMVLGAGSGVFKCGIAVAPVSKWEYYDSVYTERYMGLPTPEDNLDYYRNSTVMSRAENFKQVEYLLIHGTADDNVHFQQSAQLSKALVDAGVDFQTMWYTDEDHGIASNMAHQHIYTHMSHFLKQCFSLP
# Description: Part 1: Formulation of Selective VPAC2 Receptor Peptide Agonists: […]
# Approximately 2 mg of lyophilized peptide is weighed and dissolved in approximately 1.6 mL de-ionized water. […] After incubation at room temperature for 30 minutes, 1/10th of the original volume 10×PBS is added. The pH is adjusted to between pH 7.2 and 7.6. The peptide solution is filtered through a 0.22 μm Millex-GV syringe filter (Millipore, Bedford Mass., USA). The peptide concentration is determined through absorption at 280 nm. The peptide concentration is then adjusted to 100 μM. The peptides are frozen at −20° C. for further use.
# Part 2: In Vitro Incubation of Selective VPAC2 Receptor Peptide Agonists with Purified Dipeptidyl-Peptidase IV (DPP-IV):
# The stability of selective VPAC2 receptor peptide agonists against proteolysis by DPP-IV is determined using 100 μL of a 100 μM peptide solution in 1×PBS. A 10 μL solution is removed and quenched with 40 μL of 0.1% trifluoroacetic acid (TFA)/20% acetonitrile (ACN). This solution (20 μL) is analyzed by reversed-phase HPLC. The reversed-phase analysis consists of a Zorbax 300SB-C8 column (3.5 micron, 4.6×50 mm, Alltech Associates, Inc., Deerfield Ill., USA) running a 15-40% B gradient over 15 minutes at 60° C. where A-buffer is 0.1% (v/v) TFA in water and B-buffer is 0.085% (v/v) TFA in ACN. The peak area is integrated. This peak area serves as an internal control as 100% intact peptide.
# A 10 μL aliquot of a 1.12 mU/μL solution of DPP-IV (Sigma, St. Louis, La., USA) is added to 90 μL of a 100 μM solution of peptide, resulting in a substrate concentration of 90 μM peptide. The reaction mixture is then stored at 37° C. At various time-points, 10 μL of solution is removed, quenched with 40 μL 0.1% TFA/20% ACN, and analyzed by reversed-phase HPLC as described above. The remaining full length peptide concentration (nM) at each timepoint, except time=0, is calculated using following formula: [formula]
# For the time=0 timepoint, the concentration (nM) is calculated using the following formula: [formula]
# Normal Wistar rats = experiment: Intravenous glucose tolerance test (IVGTT); assay type: in vivo, rat; conditions: IVGTT, insulin
# Description: Intravenous glucose tolerance test (IVGTT): Normal Wistar rats are fasted overnight and are anesthetized prior to the experiment. A blood sampling catheter is inserted into the rats. The compound is given in the jugular vein. Blood samples are taken from the carotid artery. A blood sample is drawn immediately prior to the injection of glucose along with the compound. After the initial blood sample, glucose mixed with compound is injected intravenously (i.v.). A glucose challenge of 0.5 g/kg body weight is given, injecting a total of 1.5 mL vehicle with glucose and agonist per kg body weight. The peptide concentration vary to produce the desired dose in μg/kg. Blood samples are drawn at 2, 4, 6 and 10 minutes after giving glucose. The control group of animals receives the same vehicle along with glucose, but with no compound added. In some instances, a 30 minute post-glucose blood sample is drawn. Aprotinin is added to the blood sample (250 kIU/ml blood). The serum is then analyzed for glucose and insulin using standard methodologies.
# The assay uses a formulated and calibrated peptide stock in PBS. Normally, this stock is a prediluted 100 μM stock. However, a more concentrated stock with approximately 1 mg agonist per mL is used. The specific concentration is always known. Variability in the maximal response is mostly due to variability in the vehicle dose.
# human VPAC1 [4] = biological target: T2, human VPAC1; experiment: DiscoveRx cAMP in vitro potency, CHO-PO cells transiently transfected with human VPAC1 receptor; assay type: cell-based; parameters: expressed in transfected cells; host or cells: CHO-PO, transient (Lipofectamine)
# Description: as §2
# human PAC1 = biological target: T4, human PAC1 (Homo sapiens, UniProt P41586); experiment: DiscoveRx cAMP in vitro potency, CHO-PO cells transiently transfected with human PAC1 receptor; assay type: cell-based; parameters: expressed in transfected cells; host or cells: CHO-PO, transient (Lipofectamine)
# T4 sequence (P41586 21-468): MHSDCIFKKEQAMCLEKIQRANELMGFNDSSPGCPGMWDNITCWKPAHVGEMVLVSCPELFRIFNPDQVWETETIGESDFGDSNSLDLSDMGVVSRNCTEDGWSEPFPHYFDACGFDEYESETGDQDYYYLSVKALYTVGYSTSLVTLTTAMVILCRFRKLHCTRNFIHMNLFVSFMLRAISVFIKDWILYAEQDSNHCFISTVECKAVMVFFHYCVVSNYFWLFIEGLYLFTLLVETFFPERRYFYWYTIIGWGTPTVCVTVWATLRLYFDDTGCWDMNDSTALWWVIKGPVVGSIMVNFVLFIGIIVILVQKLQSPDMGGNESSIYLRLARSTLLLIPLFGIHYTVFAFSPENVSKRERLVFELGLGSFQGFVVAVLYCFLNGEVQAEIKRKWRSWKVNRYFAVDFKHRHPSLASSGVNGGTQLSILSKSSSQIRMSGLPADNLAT
# Description: as §2
# [5] = cAMP generation, mean of two independent runs, read-out: Human VPAC1 Receptor: DiscoveRx EC50
Substance,Concentration (nM) of Remaining Main Peak by RP-HPLC after Incubation of Peptide with Purified Porcine DPP-IV (DPP-IV; Time = 0 hours at 37° C.) [nM],Concentration (nM) of Remaining Main Peak by RP-HPLC after Incubation of Peptide with Purified Porcine DPP-IV (DPP-IV; Time = 2 hours at 37° C.),Concentration (nM) of Remaining Main Peak by RP-HPLC after Incubation of Peptide with Purified Porcine DPP-IV (DPP-IV; Time = 6 hours at 37° C.),Concentration (nM) of Remaining Main Peak by RP-HPLC after Incubation of Peptide with Purified Porcine DPP-IV (DPP-IV; Time = 24 hours at 37° C.),also measured
HSDAVFTDNYTRAAAKVAAKKYLQSIKNKRYGGPSSGAPPPS [Agonist P88],–,–,–,–,IC50 (human VPAC2 [1]): 93.9 nM; IC50 (human VPAC1 [2]): 979 nM; EC50 (human VPAC2 [3]): > 1000 nM
MHSDAVFTDNYTRLRKQVAAKKYLQSIKNKRYGGPSSGAPPPS [VPAC2-P104],9.0,7.8 nM,6.6 nM,4.1 nM,–
HVDAVFTDNYTRLRKQVAAKKYLQSIKNKRYGGPSSGAPPPS [Agonist P44],–,–,–,–,EC50 (human VPAC2 [3]): 0.92 nM; % increase AUC: Dose = 0.1 μg/kg (Normal Wistar rats; 0.1 μg/kg): 19%; % increase AUC: Dose = 10 μg/kg (Normal Wistar rats; 10 μg/kg): 194%
HSDAVFTDNYTRLRKQVAAKKYLQSIKNKRF [Agonist P34],–,–,–,–,IC50 (human VPAC2 [1]): 0.92 nM; IC50 (human VPAC1 [2]): 79.2 nM; EC50 (human VPAC1 [4]; [5]): 0.8 nM
H[dA]DAVFTDNYTRLRKQVAAKKYLQSIKNKRYGGPSSGAPPPS [VPAC2-P47],9.0,7.9 nM,6.1 nM,2.8 nM,–
HSDIVFTDNYTRLRKQVAAKKYLQSIKNKRYGGPSSGAPPPS [Agonist P50],–,–,–,–,EC50 (human VPAC2 [3]): 19.3 nM
H-HSDLVFTDNYTRLRKQVAAKKYLQSIKNKRYGGPSSGAPPPS [Agonist P55],–,–,–,–,"EC50 (human PAC1; cAMP generation, mean of two independent runs, read-out: Human PAC1 Receptor: DiscoveRx EC50): > 1000 nM; EC50 (human VPAC1 [4]; [5]): 134 nM"
Hexanoyl-HSDAVFTDNYTRLRKQVAAKKYLQSIKNKRYGGPSSGAPPPS [VPAC2-P31],9.0,8.0 nM and 7.0 nM and 6.7 nM,6.7 nM and 6.1 nM and 5.6 nM,2.2 nM and 2.6 nM and 3.9 nM,–
HSDVVFTDNYTRLRKQVAAKKYLQSIKNKRYGGPSSGAPPPS [Agonist P53],–,–,–,–,EC50 (human PAC1): > 1000 nM; EC50 (human VPAC1 [4]): 118 nM
Hexanoyl-HSDAVFTDNYTRLLAKLALQKYLQSIKNKRYGGPSSGAPPPS [VPAC2-P119],9.0,8.0 nM,6.6 nM,4.2 nM,–
HSDAVFTDNYTRLRKQVAAKKYLQSIKNKIYGGPSSGAPPPS [Agonist P76],–,–,–,–,EC50 (human VPAC1 [4]; [5]): 0.8 nM
